Measurements from ChEMBL document CHEMBL1201862, “PubChem BioAssay data set” (2004).
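All cell lines were grown in 96-well plates and treated with compound for 48 hours. GI50 marks 50% less growth.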 Calls of active or inactive are those of the source. Cut-off read from the data, not from the text of the source: active = GI50 up to about 1.1 µM and inactive = higher.

Legend:
Test in all cases: NCI anticancer screen, dose series, 48 h
[1] = system: LOX IMVI
[2] = system: OVCAR-4
[3] = system: 786-0
[4] = system: OVCAR-5
[5] = system: HL-60
[6] = system: EKVX
[7] = system: CCRF-CEM
[8] = system: K562
[9] = system: SW-620
[10] = system: SF-268
[11] = system: U-251
[12] = system: RXF 393
[13] = system: UO-31
[14] = system: UACC-257
[15] = system: MOLT-4
[16] = system: SK-MEL-2
[17] = system: NCI-H460
[18] = system: HCT-116
[19] = system: Hs-578T

Compound	GI50 [1]	GI50 [2]	GI50 [3]	GI50 [4]	GI50 [5]	GI50 [6]	GI50 [7]	GI50 [8]	GI50 [9]	GI50 [10]	GI50 [11]	GI50 [12]	GI50 [13]	GI50 [14]	GI50 [15]	GI50 [16]	GI50 [17]	GI50 [18]	GI50 [19]
CCCCCCCCCC[S+]([O-])CC(CO)NC(=O)/C=C/c1c(C)nc(O)nc1O (configuration not stated)	0.877 µM (active)	0.199 µM (active)	10.9 µM (inactive)	1.71 µM (inactive)	0.815 µM (active)	0.774 µM (active)	0.136 µM (active)	0.501 µM (active)	0.535 µM (active)	0.149 µM (active)	0.132 µM (active)	0.474 µM (active)	1.28 µM (inactive)	1.33 µM (inactive)	0.518 µM (active)	0.721 µM (active)			
Cc1cccc2c1Oc1cc(Cl)ccc1C2NC(=O)CCN1CCCCC1 (configuration not stated)	15.6 µM (inactive)	15.3 µM (inactive)	14.8 µM (inactive)	17.8 µM (inactive)	15.7 µM (inactive)	20.7 µM (inactive)	16 µM (inactive)	15.1 µM (inactive)	17.8 µM (inactive)	26.2 µM (inactive)	15.6 µM (inactive)		15.4 µM (inactive)	16 µM (inactive)	16.1 µM (inactive)		16.5 µM (inactive)	15.9 µM (inactive)	
Nc1ncnc2c1nnn2C1CCC(CP(=O)(O)O)C1 (configuration not stated)	> 100 µM (inactive)	> 100 µM (inactive)	> 100 µM (inactive)	> 100 µM (inactive)	> 100 µM (inactive)	> 100 µM (inactive)	> 100 µM (inactive)	> 100 µM (inactive)	> 100 µM (inactive)	> 100 µM (inactive)	> 100 µM (inactive)	> 100 µM (inactive)	> 100 µM (inactive)	> 100 µM (inactive)	> 100 µM (inactive)	> 100 µM (inactive)	> 100 µM (inactive)	> 100 µM (inactive)	
N#CC(C(=O)c1cccnc1Cl)c1nc2cc(C(F)(F)F)ccc2s1 (configuration not stated)	37.3 µM (inactive)	67 µM (inactive)	88.9 µM (inactive)	33.9 µM (inactive)		64.9 µM (inactive)		60.5 µM (inactive)	47.1 µM (inactive)	64.9 µM (inactive)	78.3 µM (inactive)	42.3 µM (inactive)	39.8 µM (inactive)	75 µM (inactive)	> 100 µM (inactive)		59.6 µM (inactive)	26.1 µM (inactive)	
CSc1nncc(-c2cc3c(c(SC)n2)CCC3)n1		48.1 µM (inactive)	79.6 µM (inactive)	> 100 µM (inactive)	> 100 µM (inactive)	> 100 µM (inactive)	> 100 µM (inactive)		82.4 µM (inactive)	76 µM (inactive)	25.9 µM (inactive)	> 100 µM (inactive)	> 100 µM (inactive)	> 100 µM (inactive)		> 100 µM (inactive)		96.2 µM (inactive)	
O=C1CCC2(O)c3ccccc3C2Cc2ccccc21 (configuration not stated)	> 100 µM (inactive)		> 100 µM (inactive)		> 100 µM (inactive)	> 100 µM (inactive)	> 100 µM (inactive)	> 100 µM (inactive)	> 100 µM (inactive)	> 100 µM (inactive)	> 100 µM (inactive)	> 100 µM (inactive)		> 100 µM (inactive)	> 100 µM (inactive)	> 100 µM (inactive)	> 100 µM (inactive)	> 100 µM (inactive)	
CCOP(=O)(OCC)/C(=C\N1C(=O)CC(=O)NC1=S)C(=O)OC	> 100 µM (inactive)	> 100 µM (inactive)	> 100 µM (inactive)	> 100 µM (inactive)	> 100 µM (inactive)	> 100 µM (inactive)			> 100 µM (inactive)	> 100 µM (inactive)	> 100 µM (inactive)	> 100 µM (inactive)	> 100 µM (inactive)	> 100 µM (inactive)	> 100 µM (inactive)	> 100 µM (inactive)	> 100 µM (inactive)	> 100 µM (inactive)	
COc1ccc2c(N=[N+]=[N-])c(-c3ccccc3)c(=O)oc2c1	82.8 µM (inactive)		> 100 µM (inactive)		22.5 µM (inactive)	39.8 µM (inactive)	36.1 µM (inactive)	40 µM (inactive)	> 100 µM (inactive)	78.5 µM (inactive)				29.6 µM (inactive)	21.5 µM (inactive)		49.3 µM (inactive)	44.3 µM (inactive)	> 100 µM (inactive)
CC(=O)O[C@H]1CC[C@@]2(C)C(=CC[C@@H]3[C@@H]2CC[C@]2(C)NC(=O)/C(=C\c4ccccc4)C[C@@H]32)C1	17 µM (inactive)	16.5 µM (inactive)	17.6 µM (inactive)	17.7 µM (inactive)		14.9 µM (inactive)	16.5 µM (inactive)	> 100 µM (inactive)	20.2 µM (inactive)	19.6 µM (inactive)	18.1 µM (inactive)	13 µM (inactive)	15.7 µM (inactive)	17.5 µM (inactive)	> 100 µM (inactive)	20.4 µM (inactive)	26.9 µM (inactive)	15.6 µM (inactive)	
Cc1n[nH]c(=O)n1/N=C/c1ccc([N+](=O)[O-])o1	8.85 µM (inactive)	16.7 µM (inactive)	15.1 µM (inactive)	21.4 µM (inactive)		17.5 µM (inactive)	13.5 µM (inactive)	8.02 µM (inactive)	13.9 µM (inactive)	17.4 µM (inactive)	21.7 µM (inactive)	0.881 µM (active)	14.5 µM (inactive)	13 µM (inactive)	5.7 µM (inactive)	14.2 µM (inactive)	14.3 µM (inactive)	8.39 µM (inactive)	
Nc1nc2ccc(OCC(O)CN3CCCCC3)cc2[n+]([O-])n1 (configuration not stated)		> 100 µM (inactive)	> 100 µM (inactive)	> 100 µM (inactive)	> 100 µM (inactive)		> 100 µM (inactive)	> 100 µM (inactive)	> 100 µM (inactive)		> 100 µM (inactive)	> 100 µM (inactive)	> 100 µM (inactive)	> 100 µM (inactive)	> 100 µM (inactive)	> 100 µM (inactive)	> 100 µM (inactive)	> 100 µM (inactive)	
COc1ccc(N2C(=O)C3c4[nH]c5c(C)cccc5c4C4CCC(c5ccccc5)CC4C3C2=O)cc1 (configuration not stated)	13.8 µM (inactive)	11.1 µM (inactive)	3.9 µM (inactive)	15.5 µM (inactive)		26.2 µM (inactive)	1.28 µM (inactive)		9.23 µM (inactive)	6.65 µM (inactive)	8.43 µM (inactive)		20.9 µM (inactive)	16.8 µM (inactive)	3.4 µM (inactive)	24.2 µM (inactive)	5.68 µM (inactive)	13.4 µM (inactive)	12.4 µM (inactive)
Nc1ccc(S(=O)(=O)Nc2nnc(S(N)(=O)=O)s2)cc1	> 100 µM (inactive)	> 100 µM (inactive)	> 100 µM (inactive)	> 100 µM (inactive)	> 100 µM (inactive)	> 100 µM (inactive)			> 100 µM (inactive)	> 100 µM (inactive)	> 100 µM (inactive)	> 100 µM (inactive)	> 100 µM (inactive)		> 100 µM (inactive)		> 100 µM (inactive)	> 100 µM (inactive)	
